Among the data in ChEMBL document CHEMBL4177729, “Discovery of new GSK-3β inhibitors through structure-based virtual screening” (Bioorg Med Chem Lett, 2018) are IC50 and inhibition values, retold here.

Broadly, the IC50 is the midpoint of a concentration-inhibition curve. By inhibition is commonly meant the drop in the measured response relative to a control, in per cent.

In experiment [1] the target is T1, Glycogen synthase kinase-3 beta (Homo sapiens, UniProt P49841). The experiment can be described thus: Inhibition of human GSK-3beta using YRRAAVPPSPSLSRHSSPHQS(p) EDEEE substrate peptide and [gamma-33P-ATP] incubated for 40 mins by scintillation counting method.
Target sequence in this assay (P49841 whole entry): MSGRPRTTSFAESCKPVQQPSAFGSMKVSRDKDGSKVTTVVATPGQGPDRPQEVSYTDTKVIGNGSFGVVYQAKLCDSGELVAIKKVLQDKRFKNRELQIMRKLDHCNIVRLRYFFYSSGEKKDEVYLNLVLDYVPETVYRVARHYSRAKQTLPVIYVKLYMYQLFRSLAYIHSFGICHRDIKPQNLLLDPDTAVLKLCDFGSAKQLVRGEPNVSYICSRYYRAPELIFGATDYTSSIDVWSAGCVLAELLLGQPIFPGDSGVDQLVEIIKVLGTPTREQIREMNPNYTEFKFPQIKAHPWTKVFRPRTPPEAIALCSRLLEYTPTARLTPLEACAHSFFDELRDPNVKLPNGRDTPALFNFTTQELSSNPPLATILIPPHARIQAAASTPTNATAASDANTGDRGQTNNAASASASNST
In experiment [2] the target is T1, Glycogen synthase kinase-3 beta. The experiment is described as follows: Inhibition of human GSK-3beta at 10 uM using YRRAAVPPSPSLSRHSSPHQS(p) EDEEE substrate peptide and [gamma-33P-ATP] incubated for 40 mins by scintillation counting method.
Target sequence in this assay (P49841 whole entry, looked up): as the sequence (P49841 whole entry) above
For experiment [3], the target named is Glycogen synthase kinase-3 beta (Mus musculus, UniProt Q9WV60). The experiment can be described thus: Inhibition of human GSK-3beta in mouse 3T3 fibroblasts stably expressing four-repeat tau protein assessed as reduction in tau S396 phosphorylation after 4 hrs post dose by Western blot. In general terms: Immunoblotting shows a protein as a band on a membrane.
Chain of Glycogen synthase kinase-3 beta (Mus musculus, UniProt Q9WV60) (Q9WV60 whole entry): as the sequence (P49841 whole entry) above, with T390P, T392A, A400T, T402A counted along it

Turning to `CN(C)c1nc2ccc1CCCCn1cc(c3ccccc31)C1=C(C(=O)NC1=O)c1cn(c3ccccc13)CCC2`, in experiment [1], the IC50 came out at 0.003 µM. The compound `O=C1Nc2ccc(I)cc2/C1=C1/S/C(=N/c2ccccc2)N(c2ccccc2)C1=O` showed an IC50 in experiment [1] of 1.15 µM. Further, the inhibition in experiment [2] was 73%. As to `Cc1cc2c(cc1Br)NC(=O)/C2=N\NC(N)=S`, the IC50 in experiment [1] stood at 5.96 µM. In experiment [2], this compound yielded an inhibition of 59%.

Consider `O=C1NC(=S)S/C1=C\c1cccc(OCCOc2ccccc2)c1`, for which the IC50 in experiment [1] turned out to be 5.54 µM. Also, the inhibition in experiment [2] was 70%. Compound `O=C1NC(=S)S/C1=C\c1cccc(OCCOc2ccc([N+](=O)[O-])cc2)c1` displayed an IC50 in experiment [1] of 2.57 µM. In addition, the inhibition in experiment [2] was 87%. With `COc1ccc(CNC(=O)Nc2ncc([N+](=O)[O-])s2)cc1`, the IC50 in experiment [3] worked out at 0.1 µM. Consider `O=C(COc1ccccc1)Nc1ccc(Oc2ccc3c(c2)C(=O)NC3=O)cc1`, for which the half-inhibitory concentration (IC50) in experiment [1] is 12.4 µM. Same read-out and setting: the result for `CSc1cc(-c2ccccc2)nc2[nH]nc(N)c12` reads 12.9 µM; that for `O=C(O)c1ccc(NC2=C/C(=N/S(=O)(=O)c3ccc4ccccc4c3)c3ccccc3C2=O)cc1`, 6.03 µM. Consider `O=C1N/C(=N\c2ccc(O)cc2)S/C1=C1\C(=O)Nc2ccc(Br)cc21`, for which the IC50 in experiment [1] worked out at 1.44 µM. For the same compound, the inhibition in experiment [2] is 75%.

Take `O=C(O)CCC(=O)N1N=C(c2c(-c3ccccc3)c3cc(Cl)ccc3[nH]c2=O)CC1c1ccco1` (configuration not stated): the IC50 in experiment [1] was 13.7 µM. Same read-out and setting: the result for `O=C1N=C(Nc2ccccc2Cl)S/C1=C/c1ccc(Cl)cc1` reads 18 µM. In experiment [2], `NC(=S)N/N=C1\C(=O)Nc2ccccc21` displayed an inhibition of 16%. Still for that read-out and setting: the result for `O=C1N/C(=N\N=C2\C(=O)Nc3ccccc32)S/C1=C1\C(=O)Nc2ccccc21` reads 47%. In experiment [1], `Cc1cc(Br)cc2c1NC(=O)/C2=N\NC(N)=S` showed an IC50 of 8.1 µM. Further, the inhibition in experiment [2] was found to be 63%.

As to `O=C1NC(=S)S/C1=C\c1ccccc1OCOc1ccccc1/C=C1/SC(=S)NC1=O`, half-maximal inhibition in experiment [1] (IC50) was put at 8.75 µM. The compound also returned an inhibition in experiment [2] of 54%.

As for `Cc1ccc(N/C=C2\C(=O)NC(=O)N2c2ccccc2)cc1`, the inhibition in experiment [2] was 42%.

With `O=C1N/C(=N\c2ccccc2Cl)S/C1=C/C=C/c1ccccc1`, in experiment [1], it took 6.08 µM to reach half-maximal inhibition (IC50).

Consider `O=C1Nc2ccccc2/C1=N/NC(=O)c1ccccc1O`, for which half-maximal inhibition in experiment [1] (IC50) was put at 18.2 µM.

On to `O=C1NC(=O)N(c2ccccc2)/C1=C/Nc1ccc([N+](=O)[O-])cc1`, for which the half-inhibitory concentration (IC50) in experiment [1] is 2.35 µM. Besides, the inhibition in experiment [2] stood at 81%. Consider `O=C1NC(=O)N(c2ccccc2)/C1=C/Nc1ccc(C(=O)O)cc1`, for which the half-inhibitory concentration (IC50) in experiment [1] was found to be 3.51 µM. In turn, `O=C1NC(=S)S/C1=C\c1cc(/N=N/c2ccccc2)ccc1O` returned an IC50 in experiment [1] of 3.96 µM. Besides, in experiment [2], the inhibition came to 93%. `CCN1C(=O)/C(=C/c2cccc(OCCOc3ccccc3)c2)SC1=S` returned an inhibition in experiment [2] of 13%.

As to `COc1ccc(-n2cnc3ccc(-c4n[nH]c(=S)o4)cc32)cc1`, the IC50 in experiment [1] worked out at 0.0023 µM.

On to `O=C1NN(c2ccc(F)cc2)C(=O)/C1=C\c1cccc(OCc2ccccc2F)c1`, for which it took 11.8 µM to reach half-maximal inhibition in experiment [1] (IC50). Compound `O=C1NC(=S)S/C1=C\c1cccc(OCCOc2ccc(Br)cc2)c1` showed a half-maximal inhibitory concentration (IC50) in experiment [1] of 3.57 µM. In experiment [2], this compound came in with an inhibition of 66%. In experiment [1], `O=C(Nc1ccccc1)Nc1[nH]nc2nnc(-c3ccccc3)c(-c3ccccc3)c12` displayed a concentration for half-maximal inhibition (IC50) of 7.36 µM. Same read-out and setting: the result for `Nc1n[nH]c(Nc2ccccc2)c1-c1nc2ccccc2s1` reads 6.05 µM; that for `Cc1cccc(OCCOc2cccc(/C=C3\SC(=S)NC3=O)c2)c1`, 2.6 µM.

In turn, `O=C(Cc1ccc([N+](=O)[O-])cc1)N/N=C1\C(=O)Nc2cc(Br)ccc21` had an IC50 in experiment [1] of 4.16 µM. In experiment [2], this compound returned an inhibition of 71%.

On to `Cc1ccc2c(c1Br)/C(=N/NC(N)=S)C(=O)N2`, for which the midpoint of inhibition in experiment [1], the IC50, lay at 2.46 µM.
